Our source for the IC50 values is US9840503B2, “Heterocyclic compounds and uses thereof” (Incyte Corporation, priority 2015, dated 2017).

What all share (type): biochemical
The target in one assay is AXL (Homo sapiens (Human), UniProt P30530). The assay can be described thus: TAM Enzymatic Assay (HTRF), AXL. Conditions: 13.8 nM AXL, 100 uM ATP, 60 min room temperature. Here is the method:
(§1) The assay buffer contained 50 mM HEPES, pH7.5, 10 mM MgCl2, 1 mM EGTA, 0.01% NP-40 and 2 mM DTT. 0.5 ul test compounds dissolved in DMSO were transferred from compound plates to white 384-well assay plates (Greiner […] plates). […] A 1 mM stock solution of peptide substrate Biotin-[…]-amide (Quality Controlled Biochemicals, MA) dissolved in DMSO was diluted to 1 uM in assay buffer containing 100 uM ATP (for AXL and c-MER assays) or 20 uM ATP (for TYRO3 assay). 10 ul enzyme solution (or assay buffer for the enzyme blank) was added to the appropriate wells in each plate, and then 10 ul/well substrate solution was added to initiate the reaction. The plate was protected from light and incubated at room temperature for 60 min. […] The plate was incubated for 1 h at room temperature, and HTRF (homogenous time resolved fluorescence) signal was measured on a PHERAstar FS plate reader (BMG labtech). Percentage of inhibition was calculated for each concentration and IC50 value was generated from curve fitting with GraphPad Prism software.
In general terms: Time-resolved FRET reads energy transfer from a long-lived donor to a nearby acceptor.

For another assay, the target named is c-MER (Homo sapiens (Human), UniProt Q12866). Kind of assay: TAM Enzymatic Assay (HTRF), c-MER. The settings on record: 4.1 nM c-MER, 100 uM ATP, 60 min room temperature. Here is the method:
as §1

The target in a further assay is TYRO3 (Homo sapiens (Human), UniProt Q06418). The assay can be described thus: TAM Enzymatic Assay (HTRF), TYRO3. Conditions: 0.366 nM TYRO3, 20 uM ATP, 60 min room temperature. Here is the method:
as §1

SMILES strings stand for the structures.

Chain of c-MER (Q12866 21-999): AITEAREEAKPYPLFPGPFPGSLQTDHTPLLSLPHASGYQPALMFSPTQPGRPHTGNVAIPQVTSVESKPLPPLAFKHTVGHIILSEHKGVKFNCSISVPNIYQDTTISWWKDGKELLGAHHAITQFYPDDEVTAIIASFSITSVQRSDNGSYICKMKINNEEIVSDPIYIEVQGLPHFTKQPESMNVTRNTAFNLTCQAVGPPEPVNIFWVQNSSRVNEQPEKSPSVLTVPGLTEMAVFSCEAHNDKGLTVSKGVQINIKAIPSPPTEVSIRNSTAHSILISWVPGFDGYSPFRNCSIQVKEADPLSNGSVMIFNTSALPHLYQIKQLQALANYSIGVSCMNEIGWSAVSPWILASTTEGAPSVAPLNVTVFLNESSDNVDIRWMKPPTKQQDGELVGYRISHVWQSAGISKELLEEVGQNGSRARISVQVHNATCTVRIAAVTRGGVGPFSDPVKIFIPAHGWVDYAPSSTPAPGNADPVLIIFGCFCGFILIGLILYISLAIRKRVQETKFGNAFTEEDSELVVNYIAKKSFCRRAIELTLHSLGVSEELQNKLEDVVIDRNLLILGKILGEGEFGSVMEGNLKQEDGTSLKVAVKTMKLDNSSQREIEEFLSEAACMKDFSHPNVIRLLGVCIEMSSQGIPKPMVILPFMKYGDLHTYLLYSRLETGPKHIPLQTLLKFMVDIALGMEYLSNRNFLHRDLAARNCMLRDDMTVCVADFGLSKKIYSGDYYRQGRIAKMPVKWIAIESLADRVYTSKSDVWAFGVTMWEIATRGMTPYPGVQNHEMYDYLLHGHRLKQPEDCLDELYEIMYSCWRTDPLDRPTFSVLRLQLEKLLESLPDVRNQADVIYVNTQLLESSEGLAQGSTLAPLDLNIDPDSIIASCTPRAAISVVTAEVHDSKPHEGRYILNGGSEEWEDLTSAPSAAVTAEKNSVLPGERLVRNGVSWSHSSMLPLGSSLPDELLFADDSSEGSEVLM
Chain of TYRO3 (Q06418 41-890): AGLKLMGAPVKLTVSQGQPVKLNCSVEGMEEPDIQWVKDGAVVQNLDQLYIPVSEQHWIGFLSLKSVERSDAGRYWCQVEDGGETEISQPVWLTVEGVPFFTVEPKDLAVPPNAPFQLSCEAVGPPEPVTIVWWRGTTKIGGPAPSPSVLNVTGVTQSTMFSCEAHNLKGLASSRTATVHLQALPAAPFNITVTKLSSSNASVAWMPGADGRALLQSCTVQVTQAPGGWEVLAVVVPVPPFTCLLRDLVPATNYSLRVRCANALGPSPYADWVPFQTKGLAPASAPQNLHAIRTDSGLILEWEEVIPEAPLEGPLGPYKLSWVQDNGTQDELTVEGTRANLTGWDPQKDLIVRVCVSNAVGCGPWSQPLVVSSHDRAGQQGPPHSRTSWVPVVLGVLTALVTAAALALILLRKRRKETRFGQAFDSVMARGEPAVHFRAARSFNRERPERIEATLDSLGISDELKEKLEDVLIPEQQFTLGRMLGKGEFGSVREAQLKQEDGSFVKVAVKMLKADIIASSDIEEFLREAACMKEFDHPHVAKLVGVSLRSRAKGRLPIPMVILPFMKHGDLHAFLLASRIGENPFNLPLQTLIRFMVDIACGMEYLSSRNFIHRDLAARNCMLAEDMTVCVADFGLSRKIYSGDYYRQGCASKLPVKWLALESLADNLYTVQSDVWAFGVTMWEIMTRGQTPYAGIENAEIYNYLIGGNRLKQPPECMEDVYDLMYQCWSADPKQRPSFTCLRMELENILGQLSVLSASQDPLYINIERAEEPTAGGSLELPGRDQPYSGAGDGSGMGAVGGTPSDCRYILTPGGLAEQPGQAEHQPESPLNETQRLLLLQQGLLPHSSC
Chain of AXL (P30530 26-894): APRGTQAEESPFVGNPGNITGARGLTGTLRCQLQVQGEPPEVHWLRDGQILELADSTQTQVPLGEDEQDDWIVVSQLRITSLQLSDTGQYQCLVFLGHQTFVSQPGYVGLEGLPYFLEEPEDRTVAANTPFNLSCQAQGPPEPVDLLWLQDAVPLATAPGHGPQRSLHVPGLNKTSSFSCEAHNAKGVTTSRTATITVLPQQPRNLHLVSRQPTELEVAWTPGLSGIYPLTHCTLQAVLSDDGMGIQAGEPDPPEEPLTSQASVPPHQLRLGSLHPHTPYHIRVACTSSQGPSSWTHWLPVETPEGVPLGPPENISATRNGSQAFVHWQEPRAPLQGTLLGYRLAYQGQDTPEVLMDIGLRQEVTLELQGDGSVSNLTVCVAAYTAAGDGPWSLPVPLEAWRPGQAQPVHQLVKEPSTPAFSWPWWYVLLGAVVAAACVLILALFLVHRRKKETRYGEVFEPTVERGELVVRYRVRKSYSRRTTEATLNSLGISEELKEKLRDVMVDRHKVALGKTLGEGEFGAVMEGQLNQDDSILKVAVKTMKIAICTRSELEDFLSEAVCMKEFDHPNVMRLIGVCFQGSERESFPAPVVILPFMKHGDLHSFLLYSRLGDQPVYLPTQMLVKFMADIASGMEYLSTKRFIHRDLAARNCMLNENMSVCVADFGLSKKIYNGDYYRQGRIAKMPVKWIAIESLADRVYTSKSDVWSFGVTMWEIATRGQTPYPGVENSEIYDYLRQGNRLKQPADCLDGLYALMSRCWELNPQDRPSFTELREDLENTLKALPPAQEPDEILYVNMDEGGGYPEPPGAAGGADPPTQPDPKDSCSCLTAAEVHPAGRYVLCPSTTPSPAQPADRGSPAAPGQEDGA

As to `CCCCNc1ncc2c(n1)N([C@H]1CC[C@H](N)CC1)Cc1cc(CNC3CCCCC3)ccc1-2` [Example 9, 5-(trans-4-Aminocyclohexyl)-N-butyl-8-[(cyclohexylamino)methyl]-5,6-dihydropyrimido [4,5-c]isoquinolin-3-amine], the concentration for half-maximal inhibition (IC50) against AXL, against c-MER and at TYRO3 was less than 100 nM in each case.
On to `CCCCNc1ncc2c(n1)N([C@H]1CC[C@H](N)CC1)Cc1cc(CNC3CCCC3)ccc1-2` [Example 11, 5-(trans-4-aminocyclohexyl)-N-butyl-8-((cyclopentylamino)methyl)-5,6-dihydropyrimido[4,5-c]isoquinolin-3-amine], for which the concentration for half-maximal inhibition (IC50) against c-MER and at TYRO3 was less than 100 nM throughout.
Take `CCCCNc1ncc2c3ccc(-c4c(F)cccc4F)cc3c(=O)n([C@H]3CC[C@H](O)CC3)c2n1` [Example 8, 3-(Butylamino)-8-(2,6-difluorophenyl)-5-(trans-4-hydroxycyclohexyl)pyrimido[4,5-c]isoquinolin-6(5H)-one]: the IC50 at AXL, against c-MER and at TYRO3 was more than 1000 nM throughout.
As for `CCCCNc1ncc2c(n1)N([C@H]1CC[C@H](O)CC1)Cc1cc(CN3CCOCC3)ccc1-2` [Example 1, trans-4-[3-(Butylamino)-8-(morpholin-4-ylmethyl)pyrimido[4,5-c]isoquinolin-5(6H)-yl]cyclohexanol], the IC50 (commonly the concentration that gives 50% inhibition) on AXL is more than 1000 nM.
As for `CCCCNc1ncc2c3ccc(CNC4CCOCC4)cc3c(=O)n([C@H]3CC[C@H](O)CC3)c2n1` [Example 4, 3-(Butylamino)-5-(trans-4-hydroxycyclohexyl)-8-[(tetrahydro-2H-pyran-4-ylamino)methyl]pyrimido[4,5-c]isoquinolin-6(5H)-one], the values for the IC50 against AXL, on c-MER and against TYRO3 were more than 1000 nM, less than 100 nM and 100 to 1000 nM, respectively.
`CCCCNc1ncc2c(n1)N([C@H]1CC[C@H](O)CC1)Cc1cc(CNC3CCCCC3)ccc1-2` [Example 3, trans-4-[3-(Butylamino)-8-[(cyclohexylamino)methyl]pyrimido[4,5-c]isoquinolin-5(6H)-yl]cyclohexanol]: the IC50 against AXL, against c-MER and against TYRO3 was less than 100 nM throughout.
In the case of `CCCCNc1ncc2c3ccc(CNC4CCCCC4)cc3c(=O)n([C@H]3CC[C@H](N)CC3)c2n1` [Example 6, 5-(trans-4-aminocyclohexyl)-3-(butylamino)-8-((cyclohexylamino)methyl)pyrimido[4,5-c]isoquinolin-6(5H)-one], the IC50 on c-MER and against TYRO3 was less than 100 nM in each case.
Regarding `CCCCNc1ncc2c3ccc(CNC4CCCCC4)cc3c(=O)n([C@H]3CC[C@H](O)CC3)c2n1` [Example 2, 3-(Butylamino)-8-[(cyclohexylamino)methyl]-5-(trans-4-hydroxycyclohexyl)pyrimido[4,5-c]isoquinolin-6(5H)-one], the IC50 against c-MER and on TYRO3 was less than 100 nM throughout.
On to `CCCCNc1ncc2c3ccc(-c4cnn(C)c4)cc3c(=O)n([C@H]3CC[C@H](O)CC3)c2n1` [Example 7, 3-(Butylamino)-5-(trans-4-hydroxycyclohexyl)-8-(1-methyl-1H-pyrazol-4-yl)pyrimido[4,5-c]isoquinolin-6(5H)-one], for which the IC50 against AXL is more than 1000 nM.
`CCCCNc1ncc2c3ccc(CNCCO)cc3c(=O)n([C@H]3CC[C@H](O)CC3)c2n1` [Example 5, 3-(Butylamino)-5-(trans-4-hydroxycyclohexyl)-8-{[(2-hydroxyethyl)amino]methyl}pyrimido [4,5-c]isoquinolin-6(5H)-one]: the IC50 against AXL was more than 1000 nM.
Consider `CCCCNc1ncc2c(n1)N([C@H]1CC[C@H](N)CC1)Cc1cc(CNC3CCOCC3)ccc1-2` [Example 10, 5-(trans-4-Aminocyclohexyl)-N-butyl-8-{[(tetrahydropyran-4-yl)amino]methyl}-5,6-dihydropyrimido[4,5-c]isoquinolin-3-amine], for which the IC50 on c-MER and at TYRO3 was less than 100 nM in each case.
